# In patent publication US5753516A, “Screening method for ligands of the EBI-1 receptor” (priority 1995, dated 1998):
# Entries after “also recorded” stand apart in the source; their conditions may differ.
# What was measured:
# NALM 6 cells [1] = type: binding, human
# opiate μ-receptor = conditions: sub-antinociceptive doses; cited from earlier work
# EBI1 [2] = molecular target: T1, EBI1 (Homo sapiens, UniProt P32248); experiment: biochemical
# T1 sequence (P32248 25-378): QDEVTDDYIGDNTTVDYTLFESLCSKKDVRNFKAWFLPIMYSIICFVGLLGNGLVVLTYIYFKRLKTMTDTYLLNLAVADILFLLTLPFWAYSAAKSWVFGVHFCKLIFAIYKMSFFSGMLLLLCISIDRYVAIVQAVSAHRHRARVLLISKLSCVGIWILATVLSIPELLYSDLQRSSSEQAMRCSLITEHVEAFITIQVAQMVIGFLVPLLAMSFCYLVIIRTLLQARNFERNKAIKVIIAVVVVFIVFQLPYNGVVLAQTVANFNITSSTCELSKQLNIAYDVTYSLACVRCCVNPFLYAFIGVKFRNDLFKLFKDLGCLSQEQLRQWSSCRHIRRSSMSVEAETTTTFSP
# Description: (§1) Data are plotted as the concentration of free ^3 H-DPDPE (x-axis) vs specific binding of ^3 H-DPDPE (y-axis).
# EBI1 [3] = molecular target: T1, EBI1
# Description: as §1
# EBI1 [4] = molecular target: T1, EBI1; conditions: COS (EBI 1); MET-ENK 0.01 nM, naloxone 10 μM, forskolin 0.1 μM; controls 61.2 and 63.5
# NALM 6 cells [5] = experiment: [Ca^2+ ]i response of NALM 6 / leukemia cells (Indo-1, flow cytometry); type: cell-based, human
# Description: FIG. 15, Panels A-C. […] Cells were labeled with Indo-1 as previously described (Rabinovitch et al., 1986), washed twice in serum-free medium and held at 4° C. until flow cytometric analysis. The violet/blue fluorescence ratio was measured using previously described methods (Rabinovitch et al., 1986). Nonstimulated cells (measured in medium, alone) were used to establish a relative violet/blue ratio arbitrarily set at 1.0 as previously described (Rabinovitch). Calibration of [Ca^2+ ]i was carried out as previously described by Rabinovitch et al (1986) using the formula: [formula]
# Rmax values were determined by measuring the maximum shift in indo violet/blue fluorescence for cells treated with 4 μM ionomycin. Rmin was measured as the minimum ratio for the violet blue fluorescence of ionomycin treated cells following the addition of 8 mM EGTA. […] The Kd (effective dissociation constant) was set at 250 nM.
# human T cells [6] = experiment: Migration of human peripheral blood T cells; type: cell-based
# COS (Vector Control) = experiment: cAMP accumulation in COS cells (vector control); type: cell-based, monkey; conditions: COS (Vector Control); MET-ENK 0.01 nM, naloxone 10 μM, forskolin 0.1 μM; controls 40.2 and 38.8
# NALM 6 cells [7] = experiment: Light scatter analysis of morphological response of NALM 6 cells; type: cell-based, human
# Description: FIG. 2, Panels A and B. Methionine-enkephalin induces a morphological change in NALM 6 cells. […] Analysis of forward and right angle light scatter was performed using a Becton Dickinson FACS SCAN flow cytometer as described (Sklar et al., 1984). Histograms of light scatter were obtained by analyzing 10,000 cells per sample. Data are expressed as mean channel number (y-axis) vs concentration of MET-ENK (x-axis).
# Forward and right angle light scatter analysis of the morphological response to MET-ENK: The effect of MET-ENK on cell morphology were measured using flow cytometric analysis of forward and right angle light scatter as previously described (Sklar et al., 1984). For these studies 10^6 cells were resuspended in one-ml of PBS, activated by the addition of MET-ENK or maintained in the PBS buffer alone, and then, incubated for 5 minutes at 37° C. […] Samples were analyzed on a Becton Dickinson FACS SCAN flow cytometer with excitation at 488 nm (Sklar et al., 1984). Histograms of light scattering were obtained by analyzing 10,000 cells for each sample. Data analysis was performed using the Lysys System software package.
# NALM 6 cells [8] = experiment: Migration (chemotaxis) of NALM 6 pre-B ALL cells; type: cell-based, human; conditions: for % Response (with/without naloxone): 90 min, 10 µM
# in vitro = conditions: human, nalm 6 cells
# NALM 6 cells [9] = experiment: MET-ENK-FITC binding to NALM 6 cells (flow cytometry, Scatchard); parameters: species or system human; conditions: 5 μM naloxone
# LAZ 221 cells = experiment: Flow cytometry of surface molecule expression on LAZ 221 cells; type: cell-based, human; conditions: LAZ 221, 100 fold excess of naloxone
# Description: FIG. 4, Panels A-C. […] Data are presented as mean fluorescence intensities measured for 10,000 cells labeled with anti-CD9 or CD10 mAb. In Panel A, the NALM 6 Cells were incubated with MET-ENK (10^-7 M) for the times indicated. In Panel B, the LAZ 221 cells were incubated with MET-ENK at the doses indicated for 5 minutes at 37° C. […] The anti-CD9 and anti-CD10 mAb used for these experiments were of the IgG2a isotype.
# Immunofluorescence Staining and Flow Cytometric Analysis of Cell Surface Molecules: Cells were resuspended at 1×10^6 /ml in PBS and then incubated for periods of 5 to 120 minutes at 37° C. with MET-ENK at doses of 0 to 10^-5 M. Incubations were terminated by transferring samples to an ice bath and then pelleting the cells by centrifugation at 1800 rpm for 5 minutes at 4° C.
# Immunofluorescence staining was carried out in 4-ml tubes maintained in an ice water bath. […] Cells were subsequently fixed within a 2% solution of formalin and maintained in the dark at 10° C. until analyzed.
# Flow cytometric analysis was performed using a FACS SCAN Flow Cytometer (Becton Dickinson, Mountain View, Calif.) equipped with a HP9000 Series computer and the Lysys System software analysis package. Data were collected as histograms depicting the fluorescence intensity for 5,000 to 10,000 cells per sample.
# The non-binding IgG1 MOPC myeloma protein, anti-macrophage/monocyte specific CD14 (MO2; IgG2) and anti-T cell specific CD3 (OKT3; IgG2a) mAb were employed as nonreactive controls for measuring the autofluorescence of B cells.
# PMN = conditions: Falke and Fischer, 1985; cited from earlier work
# [10] = test system: lymphocytes and macrophages; conditions: injection into cerebroventricles of rodents; cited from earlier work
# [11] = test system: freshly isolated lymphocytes and EBV transformed cell lines; conditions: Borboni et al., 1989; cited from earlier work
# human T cells [12] = conditions: Heagy et al., 1990; cited from earlier work
# PBMC = conditions: cited from earlier work
compound,measurement,setting,value
"CC1(C)SSC(C)(C)[C@@H](NC(=O)[C@@H](N)Cc2ccc(O)cc2)C(=O)NCC(=O)N[C@@H](Cc2ccccc2)C(=O)N[C@H]1C(=O)O [DPDPE, [D-Pen^2,5]enkephalin]","specific binding, % of total",NALM 6 cells [1],50-80%
same,effect on morphine antinociception,opiate μ-receptor,enhance the antinociception mediated via the opiate μ-receptor agonist morphine
same,Kd,EBI1 [2],0.2 nM
same,binding to membranes of COS cells expressing lymphocyte R7G,EBI1 [3],"specific, high affinity binding"
same,"specific binding, % of total",Jurkat cells,50-60%
C=CCN1CC[C@]23c4c5ccc(O)c4O[C@H]2C(=O)CC[C@@]3(O)[C@H]1C5 [Naloxone],cAMP,EBI1 [4],76.4 fmoles/cell × 10^3
same,[Ca^2+ ]i response,NALM 6 cells [5],inhibited by naloxone
same,human lymphocyte / T cell migration,human T cells [6],blocked the T cell chemotaxis to MET-ENK
same,cAMP,COS (Vector Control),31.4 fmoles/cell × 10^3
same,morphological response (light scatter) of NALM 6 cells,NALM 6 cells [7]; 5 minutes at 37° C.,inhibited by preincubation with naloxone
same,"baseline light scatter, naloxone alone",NALM 6 cells [7]; vs PBS alone,shifted the baseline measurement below that for the control
same,% Response (with/without naloxone),"NALM 6 cells [8]; MET-ENK 1 nM, naloxone 10^-5 M",43%
same,% Response (with/without naloxone),"NALM 6 cells [8]; MET-ENK 100 nM, naloxone 10^-5 M",42%
same,effect of naloxone on NALM 6 migration,NALM 6 cells [8]; migration to MET-ENK or spontaneous locomotion,inhibited the migration of NALM 6 cells to MET-ENK; also recorded: Spontaneous locomotion resulting from the random movement of unchallenged cells was equivalent for naloxone treated and nontreated cells
same,"cell counts, migration to MET-ENK with naloxone","NALM 6 cells [8]; naloxone 10^-5 M, MET-ENK 100 nM",1476 cell counts
same,"cell counts, spontaneous locomotion with naloxone","NALM 6 cells [8]; naloxone 10^-5 M, no MET-ENK, without naloxone 1647",1350 cell counts
same,% Response (with/without naloxone),"NALM 6 cells [8]; spontaneous locomotion, naloxone 10^-5 M",82%
same,viability at 10 µM,in vitro,≥ 96%
same,effect of naloxone on MET-ENK(-FITC) binding,NALM 6 cells [9],in the presence of naloxone this association is decreased; also recorded: blocked
same,reversal of agonist binding by naloxone,"Jurkat cells; ^3 H-DADLE, ^3 H-DPDPE, ^3 H-U69,593",a portion of the binding of these highly selective opiate receptor agonists was reversed by naloxone
same,effect on MET-ENK induction of CD9,LAZ 221 cells,totally blocked
β-END: polypeptide β-endorphin,onset of PMN morphological response,PMN,≤ 2 minutes
same,lymphocyte and macrophage migration into ventricles,[10],elicited lymphocyte and macrophage migration into the ventricles
same,human lymphocyte / T cell migration,human T cells [6],stimulate human lymphocyte migration
same,sensitivity of binding to naloxone,[11],insensitive to naloxone and not displaced by synthetic peptides containing MET-ENK residues
same,human T cell migration,human T cells [12],potent stimulants for the migration of isolated human T cells
same,blastogenic responses to T and B cell lectins,PBMC; PBMC,augment the blastogenic responses of PBMC to both T and B cell lectins
same,IFN-γ production,PBMC; lectin stimulated PBMC,enhance IFN-γ production
